Laboratory results taken from patent publication US20250034116A1, “1,4-DIHETEROCYCLIC SUBSTITUTED AROMATIC RING OR AROMATIC HETEROCYCLIC COMPOUND AND USE THEREOF” (BeBetter Med Inc., priority 2022, published 2025).

How the values were obtained:
[1] = tested on: CYP enzymes in human liver microsomes (HLM); assay: Inhibition of 20-HETE production in human liver microsomes (HLM); type: biochemical
Protocol: (§1) Experimental principle: The inhibitory activity of 20-HETE production is evaluated by testing the inhibitory effects of the compound on human liver microsomes (HLM), rat liver microsomes (RLM), mouse liver microsomes (MLM), or […] CYP4 subtype enzymes (CYP4F2). This assay employs HLM, RLM, or MLM along with recombinant CYP4F2 (rCYP4F2) and recombinant CYP4A11 (rCYP4A11), which are […] CYP4 subtype enzymes, to detect the effects of the test compound at different concentrations on the metabolic rate of enzyme-specific substrates, to determine the inhibitory effects of the test compound on CYP enzymes in HLM, RLM, or MLM.
(§2) Experimental methods: Dissolve the test compound in DMSO, and subsequently dilute it with an acetonitrile and DMSO mixture (3:1). Add 2 μl of varying concentrations of the test compound and 100 μl of potassium phosphate buffer containing either liver microsomes or recombinant enzymes to a 96-well plate. After mixing well, transfer 30 μl to another well (in duplicate), add 15 μl of 400 μM substrate solution, and mix well again. Preheat at 37° C. for 10 minutes, and then add 15 μl of 6 mM NADPH and incubate at 37° C. for 25 minutes. After 25 minutes, add 160 μl of acetonitrile solution (containing 0.1 μg/ml internal standard) to stop the reaction. Mix well, centrifuge at 3500 g for 15 minutes, and then analyze the supernatant using LC-MS/MS.
(§3) Plot the compound concentration on the x-axis and the inhibition rate on the y-axis to draw the curve. Use GraphPad Prism 5 software to fit the curve and calculate the IC50. The formula is Y=Bottom+(Top−Bottom)/(1+10^((Log IC50−X)×HillSlope)). X represents the logarithmic concentration of the inhibitor, and Y represents the relative enzyme activity at a given inhibitor concentration (relative to the condition without the inhibitor).
(§4) Calculate the inhibition percentages at concentrations of 1000 nM, 500 nM, or 100 nM as well as the half-maximal inhibitory concentration (IC50) of the test compound from the above experiment.

[2] = tested on: CYP enzymes in rat liver microsomes (RLM); assay: Inhibition of 20-HETE production in rat liver microsomes (RLM); type: biochemical
Protocol: as §1, §2, §3, §4

| HLM (% inh @ 500 nM) [1] [%] | RLM (% inh @ 500 nM) [2] [%] | IC50 [2] [nM] | IC50 [1] [nM] | Structure (SMILES) |
| --- | --- | --- | --- | --- |
| 76.97 | 43.82 | – | – | O=C(NC1CCN(c2ccc(-c3cn[nH]c3)cc2)CC1)C1CCCC1 [Compound 69, N-(1-(4-(1H-pyrazol-4-yl)phenyl)piperidin-4-yl)cyclopentanecarboxamide] |
| 67.30 | 23.02 | – | – | O=C1CCCN1CC1CCN(c2cc(F)c(-c3cn[nH]c3)cc2F)CC1 [Compound 6, 1-((1-(2,5-difluoro-4-(1H-pyrazol-4-yl)phenyl)piperidin-4-yl)methyl)pyrrolidin-2-one] |
| 62.73 | 21.92 | – | – | O=C(NC1CCCC1)C1CCN(c2ccc(-c3cn[nH]c3)cc2)CC1 [Compound 55, 1-(4-(1H-pyrazol-4-yl)phenyl)-N-cyclopentylpiperidine-4-carboxamide] |
| 65.27 | 17.66 | – | – | O=C1CCCN1CC1CCN(c2ccc(-c3cn[nH]c3)cc2CO)CC1 [Compound 17, 1-((1-(2-(hydroxymethyl)-4-(1H-pyrazol-4-yl)phenyl)piperidin-4-yl)methyl)pyrrolidin-2-one] |
| 84.23 | 76.10 | – | – | C[C@H]1CN(C(=O)N2CCCC2)CCN1c1ccc(-c2cn[nH]c2)c(F)c1F [Compound 102, (S)-(4-(2,3-difluoro-4-(1H-pyrazol-4-yl)phenyl)-3-methylpiperazin-1-yl)(pyrrolidin-1-yl) methanone] |
| 85.59 | 54.89 | – | – | C#CCCCCCC(=O)NCC1CCN(c2ccc(-c3cn[nH]c3)cc2)CC1 [Compound 114, N-((1-(4-(1H-pyrazol-4-yl)phenyl)piperidin-4-yl)methyl)oct-7-ynamide] |
| 92.84 | 77.16 | – | – | O=C(C1CCCC1)N1CCC(c2ccc(-c3cn[nH]c3)cc2F)CC1 [Compound 138, cyclopentyl(4-(2-fluoro-4-(1H-pyrazol-4-yl)phenyl)piperidin-1-yl) methanone] |
| 78.37 | 69.34 | – | – | O=C(C1CCC(F)(F)CC1)N1CCC(c2ccc(-c3cn[nH]c3)c(F)c2F)CC1 [Compound 101, (4-(2,3-difluoro-4-(1H-pyrazol-4-yl)phenyl)piperidin-1-yl)(4,4-difluorocyclohexyl) methanone] |
| 81.26 | 32.02 | 995 | – | O=C(C1CCN(c2ccc(-c3cn[nH]c3)cc2)CC1)N1CCCCC1 [Compound 54, (1-(4-(1H-pyrazol-4-yl)phenyl)piperidin-4-yl)(piperidin-1-yl) methanone] |
| 57.83 | 26.43 | – | – | O=C(CCCCCO)NCC1CCN(c2ccc(-c3cn[nH]c3)cc2)CC1 [Compound 45, N-((1-(4-(1H-pyrazol-4-yl)phenyl)piperidin-4-yl)methyl)-6-hydroxyhexanamide] |
| 89.94 | 74.89 | – | – | O=C(N1CCCC1)N1CCN(c2ccc(-c3cn[nH]c3)cc2F)CC1 [Compound 129, (4-(2-fluoro-4-(1H-pyrazol-4-yl)phenyl)piperazin-1-yl)(pyrrolidin-1-yl) methanone] |
| 87.83 | 75.79 | 116 | – | O=S(=O)(C1CCCCC1)N1CCC(c2ccc(-c3cn[nH]c3)cc2F)CC1 [Compound 119, 1-(cyclohexylsulfonyl)-4-(2-fluoro-4-(1H-pyrazol-4-yl)phenyl)piperidine] |
| 95.80 | – | 25.4 | 25.6 | O=C(C1CCCCC1)N1CCC(c2ccc(-c3cn[nH]c3)c(F)c2F)CC1 [Compound 97, cyclohexyl(4-(2,3-difluoro-4-(1H-pyrazol-4-yl)phenyl)piperidin-1-yl) methanone] |
| 93.40 | 71.20 | 107 | 16.1 | O=S(=O)(c1ccc(F)cc1)N1CCC(c2ccc(-c3cn[nH]c3)cc2F)CC1 [Compound 120, 4-(2-fluoro-4-(1H-pyrazol-4-yl)phenyl)-1-((4-fluorophenyl)sulfonyl)piperidine] |
| – | 35.54 | 942 | 43.2 | O=C(NCC1CCN(c2ccc(-c3cn[nH]c3)cc2)CC1)C1CCCC1 [Compound 46, N-((1-(4-(1H-pyrazol-4-yl)phenyl)piperidin-4-yl)methyl)cyclopentanecarboxamide] |
| 94.96 | 61.73 | 341 | 19.4 | O=C(NCc1ccccc1)C1CCN(c2ccc(-c3cn[nH]c3)c(F)c2F)CC1 [Compound 95, N-benzyl-1-(2,3-difluoro-4-(1H-pyrazol-4-yl)phenyl)piperidine-4-carboxamide] |
| 85.21 | – | 26.2 | 20.8 | C=CCCCCCC(=O)NCC1CCN(c2ccc(-c3cn[nH]c3)cc2)CC1 [Compound 115, N-((1-(4-(1H-pyrazol-4-yl)phenyl)piperidin-4-yl)methyl)oct-7-enamide] |
| 73.42 | 39.97 | – | – | O=C1CCCN1CCC1CCN(c2ccc(-c3cn[nH]c3)cc2)CC1 [Compound 48, 1-(2-(1-(4-(1H-pyrazol-4-yl)phenyl)piperidin-4-yl)ethyl)pyrrolidin-2-one] |
| 92.79 | 73.06 | 148 | – | O=C(NCc1ccccc1)N1CCN(c2ccc(-c3cn[nH]c3)c(F)c2F)CC1 [Compound 94, N-benzyl-4-(2,3-difluoro-4-(1H-pyrazol-4-yl)phenyl)piperazine-1-carboxamide] |
| 82.89 | 59.01 | – | – | O=C1CCCN1CC1CCN(c2ccc(-c3cnoc3)c(F)c2F)CC1 [Compound 37, 1-((1-(2,3-difluoro-4-(isoxazol-4-yl)phenyl)piperidin-4-yl)methyl)pyrrolidin-2-one] |
| – | – | 542 | 46.1 | O=C1CCCN1CC1CCN(c2ccc(-c3cn[nH]c3)cc2C(F)(F)F)CC1 [Compound 10, 1-((1-(4-(1H-pyrazol-4-yl)-2-(trifluoromethyl)phenyl)piperidin-4-yl)methyl)pyrrolidin-2-one] |
| 57.77 | 15.76 | – | – | Clc1ccc(CC2CCN(c3ccc(-c4cn[nH]c4)cc3)CC2)cc1 [Compound 41, 1-(4-(1H-pyrazol-4-yl)phenyl)-4-(4-chlorobenzyl)piperidine] |
| 55.98 | 16.98 | – | – | O=C1CCC(=O)N1CC1CCN(c2ccc(-c3cn[nH]c3)cc2)CC1 [Compound 28, 1-((1-(4-(1H-pyrazol-4-yl)phenyl)piperidin-4-yl)methyl)pyrrolidine-2,5-dione] |
| 52.63 | 2.30 | – | – | O=C(C1CCN(c2ccc(-c3cn[nH]c3)cc2)CC1)N1CC2CCC1C2 (stereo not shown) [Compound 65, (1-(4-(1H-pyrazol-4-yl)phenyl)piperidin-4-yl)(2-azabicyclo[2.2.1]heptane-2-yl) methanone] |
| 61.47 | 8.80 | – | – | O=C1C2CCC(C2)N1CC1CCN(c2ccc(-c3cn[nH]c3)cc2)CC1 (stereo not shown) [Compound 33, 2-((1-(4-(1H-pyrazol-4-yl)phenyl)piperidin-4-yl)methyl)-2-azabicyclo[2.2.1]heptan-3-one] |
| 76.91 | 17.99 | – | – | Cc1cc(-c2cn[nH]c2)ccc1N1CCC(CN2CCCC2=O)CC1 [Compound 12, 1-((1-(2-methyl-4-(1H-pyrazol-4-yl)phenyl)piperidin-4-yl)methyl)pyrrolidin-2-one] |
| 53.10 | 34.61 | – | – | O=C1CCCN1CC1CCN(c2ccc(-c3cn[nH]c3)nc2)CC1 [Compound 22, 1-((1-(6-(1H-pyrazol-4-yl)pyridin-3-yl)piperidin-4-yl)methyl)pyrrolidin-2-one] |
| 82.17 | 84.99 | – | – | O=C(Cc1ccccc1)N1CCC(c2ccc(-c3cn[nH]c3)c(F)c2F)CC1 [Compound 111, 1-(4-(2,3-difluoro-4-(1H-pyrazol-4-yl)phenyl)piperidin-1-yl)-2-phenylethan-1-one] |
| 61.30 | 31.42 | – | – | CC(=O)NCC1CCN(c2ccc(-c3cn[nH]c3)cc2)CC1 [Compound 43, N-((1-(4-(1H-pyrazol-4-yl)phenyl)piperidin-4-yl)methyl) acetamide] |

| Structure (SMILES) | HLM (% inh @ 500 nM) [1] [%] | RLM (% inh @ 500 nM) [2] [%] | IC50 [2] [nM] | IC50 [1] [nM] |
| --- | --- | --- | --- | --- |
| O=C(N1CCCC1)N1CC2CCC(C1)N2c1ccc(-c2cn[nH]c2)c(F)c1F [Compound 128, (8-(2,3-difluoro-4-(1H-pyrazol-4-yl)phenyl)-3,8-diazabicyclo[3.2.1]octan-3-yl)(pyrrolidin-1-yl) methanone] | 89.99 | 62.11 | – | – |
